Measured values reported in patent US8507471B2, “Biphenylcarboxamide derivatives as hedgehod pathway modulators” (IRM LLC, priority 2007, dated 2013).

How the values were obtained:
[1] = test system: lymphoma cells expressing luciferase; experiment: Inhibiting Hh pathway abrogates lymphoma expansion in vivo (bioluminescence imaging); design: species or system syngeneic C57BL/6 mice; conditions: 50 mg/kg/day
Description: Stroma produced hedgehog ligands are important growth and survival factors for primary lymphoma cells under in-vitro culture conditions. Growth and expansion of lymphoma cells in-vivo is also dependent on Hh signalling. 1e6 lymphoma cells expressing luciferase were injected into syngeneic C57BL/6 mice. […] Luciferase levels were measured by bioluminescence imaging 3 times per week. […] Therefore we conclude that hedgehog pathway inhibition reduces lymphoma growth in mice.

[2] = test system: basal cell carcinoma lesions (basaloid nests) in embryonic skin punches; experiment: Embryonic skin punch assay (Shh-induced basaloid nests); type: cell-based, Ptch+/−-LacZ mice; conditions: Mus musculus, completely blocks the basanoid formation, read-out: EC50 to block basanoid formation
Description: Compounds of the invention are tested from their ability to treat non-melanoma skin cancer, i.e. basal cell carcinoma lesions using the skin punch assay. Mouse embryos from Ptch^+/−-LacZ mice, are collected and killed at late gestation (embryonic day 17.5) and their skins excised. Circular punches (4 mm in diameter are placed in a collagen-coated Transwell (BIOCOAT cell Culture Insert, Becton Dickinson Labware, Bedford, Mass.) and cultured at the air-liquid interface, with the epidermis side facing up. The culture medium contains 5% FBS in DMEM/F12 (3:1) with added epidermal growth factor, insulin, and hydrocortisone. To induce formation of basaloid nests, punches are grown in the presence of 1-2 μg/ml Shh for 4 or more days. Effects of compounds of the invention are tested by adding at the time of Shh addition or after 6 days of Shh pretreatment. Compounds of the invention show full inhibition (preventing lesion formation) at concentrations of 1 μM or less.

Compound: Cc1c(C(=O)Nc2ccc(N3C[C@@H](C)O[C@@H](C)C3)nc2)cccc1-c1ccc(OC(F)(F)F)cc1 [Compound 153, N-(6-((2R,6S)-2,6-dimethylmorpholino)pyridin-3-yl)-2-methyl-4′-(trifluoromethoxy)biphenyl-3-carboxamide]
- lymphoma cell expansion (full efficacy) [1]: completely blocks lymphoma cell expansion
- EC50 [2]: < 0.2 µM
